From patent US12692254B2, “Benzimidazole inhibitors of PAD enzymes” (BRISTOL-MYERS SQUIBB COMPANY, priority 2018, dated 2026)
pIC50: −log10 of the molar value.

target: human PAD4 (hPAD4) (Homo sapiens, UniProt Q9UM07); test: RFMS human PAD4 functional assay (rapid-fire mass spectrum); format: biochemical; conditions: 5 nM hPAD4 enzyme, 250 μM BAEE, 50 μM Calcium; 30 min preincubation, 90 min reaction at 37° C.
How it was run: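 PAD4 (10 nM) preincubated 30 min with compound (top final 50 μM), then BAEE substrate added in pH 7.5 HEPES buffer with DTT, 50 μM calcium, TPEN; 90 min at 37° C. After TCA quench, citrulline derivatized with phenyl glyoxal (4 mM final, 30 min, 37° C) and quantified by RapidFire MS against internal standard.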

Chain of human PAD4 (hPAD4) (Q9UM07 whole entry): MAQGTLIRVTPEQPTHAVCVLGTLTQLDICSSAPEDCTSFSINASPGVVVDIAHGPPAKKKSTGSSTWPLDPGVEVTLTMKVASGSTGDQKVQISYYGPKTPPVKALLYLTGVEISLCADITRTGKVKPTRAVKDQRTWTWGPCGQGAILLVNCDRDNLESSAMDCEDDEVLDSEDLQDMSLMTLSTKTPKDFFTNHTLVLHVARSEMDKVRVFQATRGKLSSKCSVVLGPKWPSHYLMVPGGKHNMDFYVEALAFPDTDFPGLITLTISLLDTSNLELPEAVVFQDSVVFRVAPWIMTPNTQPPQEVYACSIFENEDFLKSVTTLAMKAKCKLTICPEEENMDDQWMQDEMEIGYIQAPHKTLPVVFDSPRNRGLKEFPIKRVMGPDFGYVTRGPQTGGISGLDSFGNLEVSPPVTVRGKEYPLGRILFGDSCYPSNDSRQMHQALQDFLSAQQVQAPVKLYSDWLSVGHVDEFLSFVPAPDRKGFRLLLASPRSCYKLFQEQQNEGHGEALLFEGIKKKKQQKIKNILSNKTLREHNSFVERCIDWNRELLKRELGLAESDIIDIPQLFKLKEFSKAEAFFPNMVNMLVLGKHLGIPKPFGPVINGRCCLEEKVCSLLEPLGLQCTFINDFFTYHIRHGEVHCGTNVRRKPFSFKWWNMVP

| SMILES | pIC50 |
| --- | --- |
| COc1cc(C(=O)N2CC(CN)C2)cc2nc(-c3cc4ccccc4n3CC3CC3)n(Cc3cnn(C)c3)c12 [Example 291, (1-{2-[1-(cyclopropylmethyl)-1H-indol-2-yl]-7-methoxy-1-[(1-methyl-1H-pyrazol-4-yl)methyl]-1H-1,3-benzodiazole-5-carbonyl}azetidin-3 yl)methanamine] | 5.72 |
| COC(=O)N1CC(Cn2c(-c3cc4cccnc4n3CC3CC3)nc3cc(C(=O)N4C[C@H]5CC[C@@H]4[C@@H]5N)cc(OC)c32)C1 [Example 132, methyl 3-({5-[(1R,4R,7R)-7-amino-2-azabicyclo[2.2.1]heptane-2-carbonyl]-2-[1-(cyclopropylmethyl)-1H-pyrrolo[2,3-b]pyridin-2-yl]-7-methoxy-1H-1,3-benzodiazol-1-yl}methyl)azetidine-1-carboxylate] | 6.83 |
| COc1cc(C(=O)N2C[C@H]3CC[C@@H]2[C@@H]3N)cc2nc(-c3cc4cccnc4n3CC3CC3)n(C3CN(c4cncnc4)C3)c12 [Example 76, (1R,4R,7R)-2-{2-[1-(cyclopropylmethyl)-1H-pyrrolo[2,3-b]pyridin-2-yl]-7-methoxy-1-[1-(pyrimidin-5-yl)azetidin-3-yl]-1H-1,3-benzodiazole-5-carbonyl}-2-azabicyclo[2.2.1]heptan-7-amine] | 6.53 |
| COc1cc(C(=O)N2C[C@H]3CC[C@@H]2[C@@H]3N)cc2nc(-c3cc4cccnc4n3CC3CC3)n(CC3CN(c4cncc(C)n4)C3)c12 [Example 63, (1R,4R,7R)-2-{2-[1-(cyclopropylmethyl)-1H-pyrrolo[2,3-b]pyridin-2-yl]-7-methoxy-1-{[1-(6-methylpyrazin-2-yl)azetidin-3-yl]methyl}-1H-1,3-benzodiazole-5-carbonyl}-2-azabicyclo[2.2.1]heptan-7-amine] | 6.70 |
| COc1cc(C(=O)N2CC3CCC2[C@@H]3N)cc2nc(-c3cc4ccccc4n3CC3CC3)n(CC3CCS(=O)(=O)C3)c12 (stereo partly drawn) [Example 290, ((7R)-7-amino-2-azabicyclo[2.2.1]heptan-2-yl)(2-(1-(cyclopropylmethyl)-1H-indol-2-yl)-1-((1,1-dioxidotetrahydrothiophen-3-yl)methyl)-7-methoxy-1H-benzo[d]imidazol-5-yl)methanone] | 5.80 |
| COC(=O)N1CC(n2c(-c3cc4cccnc4n3CC3CC3)nc3cc(C(=O)N4C[C@H]5CC[C@@H]4[C@@H]5N)cc(OC)c32)C1 [Example 188, methyl 3-{5-[(1R,4R,7R)-7-amino-2-azabicyclo[2.2.1]heptane-2-carbonyl]-2-[1-(cyclopropylmethyl)-1H-pyrrolo[2,3-b]pyridin-2-yl]-7-methoxy-1H-1,3-benzodiazol-1-yl}azetidine-1-carboxylate] | 6.41 |
| COc1cc(C(=O)N2C[C@H]3CC[C@@H]2[C@@H]3N)cc2nc(-c3cc4ccc(Cl)cc4n3C)n(CC3CN(c4ccnc(C)n4)C3)c12 [Example 45, (1R,4R,7R)-2-[2-(6-chloro-1-methyl-1H-indol-2-yl)-7-methoxy-1-{[1-(2-methylpyrimidin-4-yl)azetidin-3-yl]methyl}-1H-1,3-benzodiazole-5-carbonyl]-2-azabicyclo[2.2.1]heptan-7-amine] | 6.94 |
| COc1cc(C(=O)N2C[C@H]3CC[C@@H]2[C@@H]3N)cc2nc(-c3cc4cccnc4n3CC3CC3)n(CC3CN(c4cccnc4C#N)C3)c12 [Example 36, 3-[3-({5-[(1R,4R,7R)-7-amino-2-azabicyclo[2.2.1]heptane-2-carbonyl]-2-[1-(cyclopropylmethyl)-1H-pyrrolo[2,3-b]pyridin-2-yl]-7-methoxy-1H-1,3-benzodiazol-1-yl}methyl)azetidin-1-yl]pyridine-2-carbonitrile] | 7.04 |
| COc1ncccc1-n1cc(Cn2c(-c3cc4cccnc4n3CC3CC3)nc3cc(C(=O)N4C[C@H](N)C[C@@H](F)C4)cc(OC)c32)cn1 [Example 343, (3R,5R)-1-{2-[1-(cyclopropylmethyl)-1H-pyrrolo[2,3-b]pyridin-2-yl]-7-methoxy-1-{[1-(2-methoxypyridin-3-yl)-1H-pyrazol-4-yl]methyl}-1H-1,3-benzodiazole-5-carbonyl}-5-fluoropiperidin-3-amine] | 6.94 |
| COc1cc(C(=O)N2C[C@H]3CC[C@@H]2[C@@H]3N)cc2nc(-c3cc4cccnc4n3CC3CC3)n(CC3CN(c4ncc(C#N)cc4Br)C3)c12 [Example 29, 6-[3-({5-[(1R,4R,7R)-7-amino-2-azabicyclo[2.2.1]heptane-2-carbonyl]-2-[1-(cyclopropylmethyl)-1H-pyrrolo[2,3-b]pyridin-2-yl]-7-methoxy-1H-1,3-benzodiazol-1-yl}methyl)azetidin-1-yl]-5-bromopyridine-3-carbonitrile] | 7.11 |
| COc1cc(C(=O)N2C[C@H]3CC[C@@H]2[C@@H]3N)cc2nc(-c3cc4cccnc4n3CC3CC3)n(CC3CN(c4cncnc4C#N)C3)c12 [Example 52, 5-[3-({5-[(1R,4R,7R)-7-amino-2-azabicyclo[2.2.1]heptane-2-carbonyl]-2-[1-(cyclopropylmethyl)-1H-pyrrolo[2,3-b]pyridin-2-yl]-7-methoxy-1H-1,3-benzodiazol-1-yl}methyl)azetidin-1-yl]pyrimidine-4-carbonitrile] | 6.81 |
| COc1cc(C(=O)N2C[C@H]3CC[C@@H]2[C@@H]3N)cc2nc(-c3cc4ccccc4n3C)n(CC3CN(c4cncnc4C#N)C3)c12 [Example 44, 5-[3-({5-[(1R,4R,7R)-7-amino-2-azabicyclo[2.2.1]heptane-2-carbonyl]-7-methoxy-2-(1-methyl-1H-indol-2-yl)-1H-1,3-benzodiazol-1-yl}methyl)azetidin-1-yl]pyrimidine-4-carbonitrile] | 6.95 |

The next compounds have a higher pIC50 than those just listed; values first:

| pIC50 | SMILES |
| --- | --- |
| 7.21 | COc1cc(C(=O)N2CC3CCC2[C@@H]3N)cc2nc(-c3cc4cccnc4n3CC3CC3)n(Cc3cnn(-c4cncc(C#N)c4)c3)c12 (stereo partly drawn) [Example 346, 5-[4-({5-[(7R)-7-amino-2-azabicyclo[2.2.1]heptane-2-carbonyl]-2-[1-(cyclopropylmethyl)-1H-pyrrolo[2,3-b]pyridin-2-yl]-7-methoxy-1H-1,3-benzodiazol-1-yl}methyl)-1H-pyrazol-1-yl]pyridine-3-carbonitrile] |
| 7.74 | COc1cc(C(=O)N2CC3CCC2[C@@H]3N)cc2nc(-c3cc4ccccc4n3CC3CC3)n(Cc3cnn(-c4cncc(C#N)c4)c3)c12 (stereo partly drawn) [Example 351, 5-[4-({5-[(7R)-7-amino~2-azabicyclo[2.2.1]heptane-2-carbonyl]-2-[1-(cyclopropylmethyl)-1H-indol-2-yl]-7-methoxy-1H-1,3-benzodiazol-1-yl}methyl)-1H-pyrazol-1-yl]pyridine-3-carbonitrile] |
| 7.37 | COc1cc(C(=O)N2CC3CCC2[C@@H]3N)cc2nc(-c3cc4ccccc4n3CC3CC3)n(CC3CCS(=O)(=O)C3)c12 (mixture of isomers) [Example 258, rac-((7R)-7-amino-2-azabicyclo[2.2.1]heptan-2-yl)(2-(1-(cyclopropylmethyl)-1H-indol-2-yl)-1-((1,1-dioxidotetrahydrothiophen-3-yl)methyl)-7-methoxy-1H-benzo[d]imidazol-5-yl)methanone] |
| 7.19 | COc1cc(C(=O)N2C[C@H]3CC[C@@H]2[C@@H]3N)cc2nc(-c3cc4ccccc4n3CC3CC3)n(CC3CN(C(=O)c4cc(C#N)ccc4F)C3)c12 [Example 174, 3-[3-({5-[(1R,4R,7R)-7-amino-2-azabicyclo[2.2.1]heptane-2-carbonyl]-2-[1-(cyclopropylmethyl)-1H-indol-2-yl]-7-methoxy-1H-1,3-benzodiazol-1-yl}methyl)azetidine-1-carbonyl]-4-fluorobenzonitrile] |
| 7.96 | N[C@@H]1C2CCC1N(C(=O)c1cc(F)c3c(c1)nc(-c1cc4ccccc4n1CC1CC1)n3CC1CN(C(=O)c3ccccc3)C1)C2 (stereo partly drawn) [Example 136, (1R,4R,7R)-2-{1-[(1-benozylazetidin-3-yl)methyl]-2-[1-(cyclopropylmethyl)-1H-indol-2-yl]-7-fluoro-1H-1,3-benzodiazole-5-carbonyl}-2-azabicyclo[2.2.1]heptan-7-amine] |
| 7.60 | COc1cc(C(=O)N2CC3CCC2[C@@H]3N)cc2nc(-c3cc4ccccc4n3CC3CC3)n(Cc3cnn(-c4ccncc4)c3)c12 (stereo partly shown) [Example 362] |
| 7.59 | COc1cc(C(=O)N2CC3CCC2[C@@H]3N)cc2nc(-c3cc4ccccc4n3CC3CC3)n(C[C@H]3CCN(c4cncc(C#N)c4)C3)c12 (stereo partly drawn) [Example 225, 5-[(3S)-3-({5-[(1R,4R,7R)-7-amino-2-azabicyclo[2.2.1]heptane-2-carbonyl]-2-[1-(cyclopropylmethyl)-1H-indo1-2-yl]-7-methoxy-1H-1,3-benzodiazol-1-yl}methyl)pyrrolidin-1-yl]pyridine-3-carbonitrile] |
| 7.43 | COc1cccc(-n2cc(Cn3c(-c4cc5ccccc5n4CC4CC4)nc4cc(C(=O)N5CC6CCC5[C@@H]6N)cc(OC)c43)cn2)n1 (stereo partly drawn) [Example 378, (7R)-2-{2-[1-(cyclopropylmethyl)-1H-indol-2-yl]-7-methoxy-1-{[1-(6-methoxypyridin-2-yl)-1H-pyrazol-4-yl]methyl}-1H-1,3-benzodiazole-5-carbonyl}-2-azabicyclo[2.2.1]heptan-7-amine] |
| 7.51 | COc1cc(C(=O)N2CC3CCC2[C@@H]3N)cc2nc(-c3cc4ccccc4n3CC3CC3)n(CC3(F)CN(C(=O)c4ccccc4)C3)c12 (stereo partly drawn) [Example 432, (7R)-2-{1-[(1-benzoyl-3-fluoroazetidin-3-yl)methyl]-2-[1-(cyclopropylmethyl)-1H-indol-2-yl]-7-methoxy-1H-1,3-benzodiazole-5-carbonyl}-2-azabicyclo[2.2.1]heptan-7-amine] |
| 7.96 | COc1cc(C(=O)N2C[C@H]3CC[C@@H]2[C@@H]3N)cc2nc(-c3cc4ccccc4n3CC3CC3)n(Cc3ccc(N)nc3)c12 [Example 244, (1R,4R,7R)-2-{1-[(6-aminopyridin-3-yl)methyl]-2-[1-(cyclopropylmethyl)-1H-indol-2-yl]-7-methoxy-1H-1,3-benzodiazole-5-carbonyl}-2-azabicyclo[2.2.1]heptan-7-amine] |
